Legend:
Experiment in all cases: Test D controlled growth environment herbicide test, pre- and postemergence
Assay type in all cases: in vivo
[1] = test system: bluegrass (annual bluegrass, Poa annua)
Procedure, shortened: (§1)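 Rating is visual, 0–100 scale (100 = complete control), made against untreated plants 14–21 d after treatment in controlled growth conditions. Postemergence sprays went onto 1- to 4-leaf plants in peat medium; preemergence sprays onto silt loam after sowing; formulation included a surfactant.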

[2] = test system: canarygrass (Phalaris minor)
Procedure, shortened: as §1

[3] = test system: speedwell (bird's-eye speedwell, Veronica persica)
Procedure, shortened: as §1

[4] = test system: buckwheat, wild (wild buckwheat, Polygonum convolvulus)
Procedure, shortened: as §1

[5] = test system: deadnettle (henbit deadnettle, Lamium amplexicaule)
Procedure, shortened: as §1

[6] = test system: galium (catchweed bedstraw, Galium aparine)
Procedure, shortened: as §1

[7] = test system: barley, spring (spring barley, Hordeum vulgare)
Procedure, shortened: as §1

[8] = test system: radish, wild (wild radish, Raphanus raphanistrum)
Procedure, shortened: as §1

[9] = test system: oilseed rape (Brassica napus)
Procedure, shortened: as §1

[10] = test system: Russian thistle (Salsola kali)
Procedure, shortened: as §1

[11] = test system: field violet (Viola arvensis)
Procedure, shortened: as §1

[12] = test system: kochia (Kochia scoparia)
Procedure, shortened: as §1

[13] = test system: ryegrass, Italian (Italian ryegrass, Lolium multiflorum)
Procedure, shortened: as §1

[14] = Postemergence, 31 g ai/ha, scale 0 to 100 (0 no effect, 100 complete control)
[15] = Postemergence, 125 g ai/ha, visual rating on scale 0 (no effect) to 100 (complete control), 14 to 21 d
[16] = Postemergence, 250 g ai/ha, scale 0 to 100 (0 no effect, 100 complete control)
[17] = Preemergence, 62 g ai/ha, scale 0 to 100 (0 no effect, 100 complete control)
[18] = Preemergence, 125 g ai/ha, scale 0 to 100 (0 no effect, 100 complete control)
[19] = Preemergence, 250 g ai/ha, scale 0 to 100, 0 no effect, 100 complete control
[20] = postemergence, 62 g ai/ha, scale 0 to 100, 0 no effect, 100 complete control

In the case of `Cc1nn(C)c(=O)c(-c2c(C)sc3ccc(Br)cc23)c1O` [Compound 22], the “Bluegrass plant response rating” value [1, 14] was 10, the “Plant response rating, Bluegrass” value [1, 15] was 25 and the “Plant response rating, Bluegrass” value [1, 16] was 25. For the same compound, the “Plant response rating (scale of 0 to 100), Bluegrass” value ([1]; Preemergence, 31 g ai/ha) was 0, the “Plant response rating, Bluegrass” value [1, 17] was 30 and the “Plant response rating, Bluegrass” value [1, 18] was 30. The “Bluegrass plant response rating” value [1, 19] was 40, the “Plant response rating, Bluegrass” value [1, 20] was 15 and the “Canarygrass plant response rating” value [2, 14] was 20. For the same compound, the “Plant response rating, Canarygrass” value [2, 15] was 40, the “Plant response rating, Canarygrass” value [2, 16] was 65 and the “Plant response rating (scale of 0 to 100), Canarygrass” value ([2]; Preemergence, 31 g ai/ha) was 25. The “Plant response rating, Canarygrass” value [2, 17] was 35, the “Plant response rating, Canarygrass” value [2, 18] was 85 and the “Plant response rating, Canarygrass” value [2, 19] was 90. For the same compound, the “Plant response rating, Canarygrass” value [2, 20] was 35, the “Speedwell plant response rating” value [3, 14] was 60 and the “Plant response rating, Speedwell” value [3, 15] was 65. The “Plant response rating, Speedwell” value [3, 16] was 100, the “Plant response rating (scale of 0 to 100), Speedwell” value ([3]; Preemergence, 31 g ai/ha) was 0 and the “Plant response rating, Speedwell” value [3, 17] was 0. For the same compound, the “Plant response rating, Speedwell” value [3, 18] was 50, the “Plant response rating, Speedwell” value [3, 19] was 100 and the “Plant response rating, Speedwell” value [3, 20] was 60. For the same compound, the “Buckwheat, Wild plant response rating” value [4, 14] was 90, the “Plant response rating, Buckwheat, Wild” value [4, 15] was 100 and the “Plant response rating, Buckwheat, Wild” value [4, 16] was 100. For the same compound, the “Plant response rating (scale of 0 to 100), Buckwheat, Wild” value ([4]; Preemergence, 31 g ai/ha) was 20, the “Plant response rating, Buckwheat, Wild” value [4, 17] was 20 and the “Plant response rating, Buckwheat, Wild” value [4, 18] was 85. For the same compound, the “Plant response rating, Buckwheat, Wild” value [4, 19] was 95, the “Plant response rating, Buckwheat, Wild” value [4, 20] was 98 and the “Deadnettle plant response rating” value [5, 14] was 10. The “Plant response rating, Deadnettle” value [5, 15] was 45, the “Plant response rating, Deadnettle” value [5, 16] was 70 and the “Plant response rating (scale of 0 to 100), Deadnettle” value ([5]; Preemergence, 31 g ai/ha) was 0. The “Plant response rating, Deadnettle” value [5, 17] was 0, the “Plant response rating, Deadnettle” value [5, 18] was 15 and the “Plant response rating, Deadnettle” value [5, 20] was 10. The “Galium plant response rating” value [6, 14] was 90, the “Plant response rating, Galium” value [6, 15] was 98 and the “Plant response rating, Galium” value [6, 16] was 98. The “Plant response rating (scale of 0 to 100), Galium” value ([6]; Preemergence, 31 g ai/ha) was 10, the “Plant response rating, Galium” value [6, 17] was 65 and the “Plant response rating, Galium” value [6, 18] was 75. The “Plant response rating, Galium” value [6, 19] was 85, the “Plant response rating, Galium” value [6, 20] was 90 and the “Plant response rating, Barley, Spring” value [7, 14] was 0. For the same compound, the “Plant response rating, Barley, Spring” value [7, 15] was 15, the “Plant response rating, Barley, Spring” value [7, 16] was 15 and the “Plant response rating (scale of 0 to 100), Barley, Spring” value ([7]; Preemergence, 31 g ai/ha) was 0. For the same compound, the “Plant response rating, Barley, Spring” value [7, 17] was 0, the “Plant response rating, Barley, Spring” value [7, 18] was 0 and the “Barley, Spring plant response rating” value [7, 19] was 0. The “Plant response rating, Barley, Spring” value [7, 20] was 0, the “Radish, Wild plant response rating” value [8, 14] was 85 and the “Plant response rating, Radish, Wild” value [8, 15] was 100. For the same compound, the “Plant response rating, Radish, Wild” value [8, 16] was 85, the “Plant response rating (scale of 0 to 100), Radish, Wild” value ([8]; Preemergence, 31 g ai/ha) was 0 and the “Plant response rating, Radish, Wild” value [8, 17] was 25. The “Plant response rating, Radish, Wild” value [8, 18] was 70, the “Plant response rating, Radish, Wild” value [8, 19] was 80 and the “Plant response rating, Radish, Wild” value [8, 20] was 75. The “Oilseed Rape plant response rating” value [9, 14] was 30, the “Plant response rating, Oilseed Rape” value [9, 15] was 95 and the “Plant response rating, Oilseed Rape” value [9, 16] was 100. The “Plant response rating (scale of 0 to 100), Oilseed Rape” value ([9]; Preemergence, 31 g ai/ha) was 0, the “Plant response rating, Oilseed Rape” value [9, 17] was 0 and the “Plant response rating, Oilseed Rape” value [9, 18] was 0. The “Plant response rating, Oilseed Rape” value [9, 19] was 75, the “Plant response rating, Oilseed Rape” value [9, 20] was 30 and the “Russian Thistle plant response rating” value [10, 14] was 65. The “Plant response rating, Russian Thistle” value [10, 15] was 75, the “Plant response rating, Russian Thistle” value [10, 16] was 85 and the “Plant response rating (scale of 0 to 100), Russian Thistle” value ([10]; Preemergence, 31 g ai/ha) was 0. For the same compound, the “Plant response rating, Russian Thistle” value [10, 17] was 0, the “Plant response rating, Russian Thistle” value [10, 18] was 0 and the “Plant response rating, Russian Thistle” value [10, 19] was 20. For the same compound, the “Plant response rating, Russian Thistle” value [10, 20] was 70, the “Field Violet plant response rating” value [11, 14] was 70 and the “Plant response rating, Field Violet” value [11, 15] was 75. The “Plant response rating, Field Violet” value [11, 16] was 95, the “Plant response rating (scale of 0 to 100), Field Violet” value ([11]; Preemergence, 31 g ai/ha) was 20 and the “Plant response rating, Field Violet” value [11, 17] was 65. The “Plant response rating, Field Violet” value [11, 18] was 80, the “Plant response rating, Field Violet” value [11, 19] was 100 and the “Plant response rating, Field Violet” value [11, 20] was 70. The “Kochia plant response rating” value [12, 14] was 80, the “Plant response rating, Kochia” value [12, 15] was 100 and the “Plant response rating, Kochia” value [12, 16] was 100. For the same compound, the “Plant response rating (scale of 0 to 100), Kochia” value ([12]; Preemergence, 31 g ai/ha) was 35, the “Plant response rating, Kochia” value [12, 17] was 35 and the “Plant response rating, Kochia” value [12, 18] was 50. The “Plant response rating, Kochia” value [12, 19] was 75, the “Plant response rating, Kochia” value [12, 20] was 95 and the “Ryegrass, Italian plant response rating” value [13, 14] was 75. The “Plant response rating, Ryegrass, Italian” value [13, 15] was 85, the “Plant response rating, Ryegrass, Italian” value [13, 16] was 90 and the “Plant response rating (scale of 0 to 100), Ryegrass, Italian” value ([13]; Preemergence, 31 g ai/ha) was 85. The “Plant response rating, Ryegrass, Italian” value [13, 17] was 90, the “Plant response rating, Ryegrass, Italian” value [13, 18] was 100 and the “Plant response rating, Ryegrass, Italian” value [13, 19] was 100. For the same compound, the “Plant response rating, Ryegrass, Italian” value [13, 20] was 80.

`Cc1ccc2ccccc2c1-c1c(O)c(Br)nn(C)c1=O` [Compound 23] was tested, and the “Plant response rating, Bluegrass” value [1, 15] was 35, the “Plant response rating, Bluegrass” value [1, 16] was 40 and the “Plant response rating, Bluegrass” value [1, 20] was 35. For the same compound, the “Plant response rating, Canarygrass” value [2, 15] was 85, the “Plant response rating, Canarygrass” value [2, 16] was 90 and the “Plant response rating, Canarygrass” value [2, 20] was 75. For the same compound, the “Plant response rating, Speedwell” value [3, 15] was 75, the “Plant response rating, Speedwell” value [3, 16] was 95 and the “Plant response rating, Speedwell” value [3, 20] was 100. The “Plant response rating, Buckwheat, Wild” value [4, 15] was 100, the “Plant response rating, Buckwheat, Wild” value [4, 16] was 100 and the “Plant response rating, Buckwheat, Wild” value [4, 20] was 100. For the same compound, the “Plant response rating, Deadnettle” value [5, 15] was 75, the “Plant response rating, Deadnettle” value [5, 16] was 85 and the “Plant response rating, Deadnettle” value [5, 20] was 65. For the same compound, the “Plant response rating, Galium” value [6, 15] was 100, the “Plant response rating, Galium” value [6, 16] was 100 and the “Plant response rating, Galium” value [6, 20] was 100. For the same compound, the “Plant response rating, Barley, Spring” value [7, 15] was 25, the “Plant response rating, Barley, Spring” value [7, 16] was 30 and the “Plant response rating, Barley, Spring” value [7, 20] was 15. The “Plant response rating, Radish, Wild” value [8, 15] was 100, the “Plant response rating, Radish, Wild” value [8, 16] was 100 and the “Plant response rating, Radish, Wild” value [8, 20] was 75. The “Plant response rating, Oilseed Rape” value [9, 15] was 65, the “Plant response rating, Oilseed Rape” value [9, 16] was 85 and the “Plant response rating, Oilseed Rape” value [9, 20] was 60. The “Plant response rating, Russian Thistle” value [10, 15] was 75, the “Plant response rating, Russian Thistle” value [10, 16] was 80 and the “Plant response rating, Russian Thistle” value [10, 20] was 75. The “Plant response rating, Field Violet” value [11, 15] was 75, the “Plant response rating, Field Violet” value [11, 16] was 75 and the “Plant response rating, Field Violet” value [11, 20] was 45. The “Plant response rating, Kochia” value [12, 15] was 75, the “Plant response rating, Kochia” value [12, 16] was 80 and the “Plant response rating, Kochia” value [12, 20] was 75. For the same compound, the “Plant response rating, Ryegrass, Italian” value [13, 15] was 85, the “Plant response rating, Ryegrass, Italian” value [13, 16] was 85 and the “Plant response rating, Ryegrass, Italian” value [13, 20] was 80.
